Measurements: ChEMBL document CHEMBL1132084, “Thrombin inhibitors based on a propargylglycine template” (Bioorg Med Chem Lett, 1999)

Experiments:
[1] = target: Prothrombin (Homo sapiens, UniProt P00734); test: Inhibition of human thrombin
[2] = target: T1, Serine protease 1 (Bos taurus, UniProt P00760); test: Inhibitory activity against bovine trypsin
T1 sequence (P00760 whole entry): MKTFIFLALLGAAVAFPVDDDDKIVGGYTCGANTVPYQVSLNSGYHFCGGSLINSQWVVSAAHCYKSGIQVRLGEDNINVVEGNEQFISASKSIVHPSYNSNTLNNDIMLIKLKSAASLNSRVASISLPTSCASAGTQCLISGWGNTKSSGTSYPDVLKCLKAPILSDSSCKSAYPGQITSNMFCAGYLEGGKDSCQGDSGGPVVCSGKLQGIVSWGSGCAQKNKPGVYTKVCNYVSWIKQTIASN

[3] = target: Tissue-type plasminogen activator (Homo sapiens, UniProt P00750); test: Inhibitory activity against tissue type plasminogen activator (t-PA)
Sequence of Tissue-type plasminogen activator (P00750 whole entry): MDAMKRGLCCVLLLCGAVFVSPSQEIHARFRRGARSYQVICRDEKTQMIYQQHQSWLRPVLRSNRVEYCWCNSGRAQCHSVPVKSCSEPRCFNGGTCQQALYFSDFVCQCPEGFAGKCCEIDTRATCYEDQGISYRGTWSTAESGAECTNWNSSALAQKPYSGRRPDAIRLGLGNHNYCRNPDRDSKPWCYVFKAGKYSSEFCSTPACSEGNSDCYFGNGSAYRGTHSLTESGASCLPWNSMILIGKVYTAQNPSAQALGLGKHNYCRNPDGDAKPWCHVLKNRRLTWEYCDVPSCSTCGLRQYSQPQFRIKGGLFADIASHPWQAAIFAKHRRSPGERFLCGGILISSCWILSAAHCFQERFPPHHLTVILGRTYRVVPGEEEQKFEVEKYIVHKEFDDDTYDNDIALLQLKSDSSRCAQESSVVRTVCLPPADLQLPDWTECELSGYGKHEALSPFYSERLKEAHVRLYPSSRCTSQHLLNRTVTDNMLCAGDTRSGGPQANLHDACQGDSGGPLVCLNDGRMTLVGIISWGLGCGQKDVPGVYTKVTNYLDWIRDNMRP

[4] = Tmax at a dose of 30 mg/kg in rat; assay type: ADME, organism-based; parameters: dose 30 mg/kg; settings: in vivo
[5] = target: Plasminogen (Homo sapiens, UniProt P00747); test: Inhibitory activity against plasmin
Sequence of Plasminogen (P00747 97-580 limits assumed): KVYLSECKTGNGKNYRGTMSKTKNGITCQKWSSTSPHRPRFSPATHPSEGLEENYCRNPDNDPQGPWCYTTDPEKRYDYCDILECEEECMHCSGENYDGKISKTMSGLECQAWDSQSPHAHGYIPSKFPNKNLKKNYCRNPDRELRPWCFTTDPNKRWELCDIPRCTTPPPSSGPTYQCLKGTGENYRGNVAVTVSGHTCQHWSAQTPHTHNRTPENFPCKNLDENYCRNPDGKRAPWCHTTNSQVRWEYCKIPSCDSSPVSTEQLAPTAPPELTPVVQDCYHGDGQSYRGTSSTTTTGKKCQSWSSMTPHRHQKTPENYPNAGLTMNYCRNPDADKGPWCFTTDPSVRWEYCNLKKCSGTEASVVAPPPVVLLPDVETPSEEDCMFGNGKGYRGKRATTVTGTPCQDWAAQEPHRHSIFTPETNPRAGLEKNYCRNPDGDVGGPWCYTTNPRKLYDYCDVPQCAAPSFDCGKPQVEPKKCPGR
Sequence of Plasminogen (P00747 581-810 limits assumed): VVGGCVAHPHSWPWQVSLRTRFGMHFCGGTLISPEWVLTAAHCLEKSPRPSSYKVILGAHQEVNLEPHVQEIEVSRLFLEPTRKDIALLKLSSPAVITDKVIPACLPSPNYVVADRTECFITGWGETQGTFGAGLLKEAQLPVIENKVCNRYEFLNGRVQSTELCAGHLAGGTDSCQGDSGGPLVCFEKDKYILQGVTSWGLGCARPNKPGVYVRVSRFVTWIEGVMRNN

[6] = Cmax at a dose of […] mg/kg in rat; assay type: ADME, organism-based; settings: in vivo, 30 mg/kg
[7] = Area under was determined at a dose of 30 mg/kg; assay type: ADME, organism-based; parameters: dose 30 mg/kg; settings: in vivo
[8] = target: Coagulation factor X (Homo sapiens, UniProt P00742); test: Inhibitory activity against factor Xa
Sequence of Coagulation factor X (P00742 41-179 limits assumed): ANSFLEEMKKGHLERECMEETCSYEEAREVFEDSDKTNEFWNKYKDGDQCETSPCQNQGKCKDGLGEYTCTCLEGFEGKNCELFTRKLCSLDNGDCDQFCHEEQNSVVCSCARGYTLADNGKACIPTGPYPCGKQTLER
Sequence of Coagulation factor X (P00742 235-488 limits assumed): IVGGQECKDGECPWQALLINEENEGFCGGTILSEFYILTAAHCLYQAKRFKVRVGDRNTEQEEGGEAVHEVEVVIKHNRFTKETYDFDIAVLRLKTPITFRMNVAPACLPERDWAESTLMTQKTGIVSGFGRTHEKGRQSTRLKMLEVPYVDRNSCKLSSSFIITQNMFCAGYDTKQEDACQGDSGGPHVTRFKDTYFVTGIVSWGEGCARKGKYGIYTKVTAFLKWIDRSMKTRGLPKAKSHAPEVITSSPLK

With CN(C(=O)[C@H](CC#Cc1cccnc1)NS(=O)(=O)c1ccc2ccccc2c1)C1CCCC1 the Ki [1] was 2.5 µM.
CNc1ccc(C#CC[C@H](NS(=O)(=O)c2ccc3ccccc3c2)C(=O)N(C)C2CCCC2)cc1N showed a Ki [2] of 32 µM and a Ki [1] of 0.04 µM.
CNc1ccc(C#CC[C@H](NS(=O)(=O)c2ccc3c(c2)CCCC3)C(=O)N(C)C2CCCC2)cc1 showed a Ki [3] of 200 µM, a Ki [2] of over 30 µM and a Tmax [4] of 45 min. The Ki [5] was over 200 µM, the Cmax [6] was 1800 nM and the Ki [1] was 0.005 µM. It also gave an AUC [7] of 4.6 µM·h and a Ki [8] of 1.9 µM.
CNc1ccc(C#CC[C@H](NS(=O)(=O)c2ccc3cc(OC)ccc3c2)C(=O)N(C)C2CCCC2)cc1 gave a Ki [3] of over 200 µM, a Ki [2] of over 30 µM and a Ki [5] of over 200 µM. For the same molecule, the Ki [1] was 0.027 µM and the Ki [8] was 14 µM.
CN(C(=O)[C@H](CC#Cc1cnc(N)s1)NS(=O)(=O)c1ccc2ccccc2c1)C1CCCC1 gave a Ki [1] of 4.5 µM.
Molecule CCNc1ccc(C#CC[C@H](NS(=O)(=O)c2ccc3ccccc3c2)C(=O)N(C)C2CCCC2)cc1 has a Ki [1] of 49 µM.
CN(C(=O)[C@H](CC#Cc1cnc(N)nc1)NS(=O)(=O)c1ccc2ccccc2c1)C1CCCC1 gave a Ki [1] of over 20 µM.
CN(C(=O)[C@H](CC#Cc1ccncc1)NS(=O)(=O)c1ccc2ccccc2c1)C1CCCC1 gave a Ki [1] of over 20 µM.
For CN(C(=O)[C@H](CC#Cc1ccc(CN)cc1)NS(=O)(=O)c1ccc2ccccc2c1)C1CCCC1, the Ki [1] was 3.4 µM.
CNc1ccc(C#CC[C@H](NS(=O)(=O)c2ccc3ccccc3c2)C(=O)N(C)C2CCCC2)cc1 gave a Ki [3] of over 200 µM, a Ki [2] of 37 µM and a Ki [5] of over 200 µM. It also gave a Ki [1] of 0.019 µM and a Ki [8] of 8.7 µM.
CN(C(=O)[C@H](CC#Cc1cnc[nH]1)NS(=O)(=O)c1ccc2ccccc2c1)C1CCCC1 showed a Ki [1] of 3 µM.
Work on CN(C(=O)[C@H](CC#Cc1cccc(N)c1)NS(=O)(=O)c1ccc2ccccc2c1)C1CCCC1 yielded a Ki [1] of 2.2 µM.
CN(C(=O)[C@H](CC#Cc1ccc(N)c(N)c1)NS(=O)(=O)c1ccc2ccccc2c1)C1CCCC1 showed a Ki [1] of 0.22 µM.
Work on CN(C(=O)[C@H](CC#Cc1ccc(N)cc1)NS(=O)(=O)c1ccc2ccccc2c1)C1CCCC1 yielded a Ki [1] of 0.29 µM.
CNc1ncc(C#CC[C@H](NS(=O)(=O)c2ccc3ccccc3c2)C(=O)N(C)C2CCCC2)cn1 showed a Ki [1] of 3.5 µM.
For CCCc1ccc(S(=O)(=O)N[C@@H](CC#Cc2ccc(NC)cc2)C(=O)N(C)C2CCCC2)cc1, the Ki [3] was 190 µM, the Ki [2] was over 30 µM and the Ki [5] was over 200 µM. It also gave a Ki [1] of 0.008 µM and a Ki [8] of 6.6 µM.
CN(C(=O)[C@H](CC#Cc1ccc(N)nc1)NS(=O)(=O)c1ccc2ccccc2c1)C1CCCC1 showed a Ki [1] of 1.5 µM.
With CNc1ccc(C#CC[C@H](NS(=O)(=O)c2ccc3ccccc3c2)C(=O)N(C)C2CCCC2)cn1 the Ki [1] was 0.3 µM.
Work on CN(C(=O)[C@H](CC#Cc1ccc(NN)cc1)NS(=O)(=O)c1ccc2ccccc2c1)C1CCCC1 yielded a Ki [1] of 1.5 µM.
